Laboratory results: patent publication US20040248963A1, “Prodrugs of excitatory amino acids” (priority 2001, published 2004)

Row | melting point | SMILES
1 | 199 to 200 °C | CCCC(=O)OCOC(=O)[C@H]1[C@@H]2CC[C@@](N)(C(=O)O)[C@@H]21 [Example 24, (1S,2S,5R,6S)-2-amino-bicyclo[3.1.0]hexane-2,6-dicarboxylic acid 6-n-butyryloxymethyl ester]
2 | 214 to 215 °C | COC(=O)OCOC(=O)[C@H]1[C@@H]2CC[C@@](N)(C(=O)O)[C@@H]21 [Example 25, (1S,2S,5R,6S)-2-amino-bicyclo[3.1.0]hexane-2,6-dicarboxylic acid 6-methoxycarbonyloxymethyl ester]
3 | 73 °C | Cl.N[C@@]1(C(=O)OCOC(=O)c2ccccc2)CC[C@H]2[C@H](C(=O)OCOC(=O)c3ccccc3)[C@H]21 [Example 43, (1S,2S,5R,6S)-2-Amino-bicyclo[3.1.0]hexane-2,6-dicarboxylic acid, 2,6-dibenzoyloxymethyl ester hydrochloride]
4 | 59 to 60 °C | CC(C)OC(=O)OCOC(=O)[C@]1(N)CC[C@H]2[C@H](C(=O)O)[C@H]21.Cl [Example 14, (1S,2S,5R,6S)-2-Amino-bicyclo[3.1.0]hexane-2,6-dicarboxylic acid 2-isopropyloxycarbonyloxymethyl ester hydrochloride]
5 | 205 to 206 °C | CC(C)(C)C(=O)OCOC(=O)[C@H]1[C@@H]2CC[C@@](N)(C(=O)O)[C@@H]21 [Example 21, (1S,2S,5R,6S)-2-Amino-bicyclo[3.1.0]hexane-2,6-dicarboxylic acid 6-tert-butylcarbonyloxymethyl ester]
6 | 52 °C | CC(C)OC(=O)OCOC(=O)[C@H]1[C@@H]2CC[C@@](N)(C(=O)OCOC(=O)OC(C)C)[C@@H]21.Cl
7 | 125 to 127 °C | Cl.N[C@@]1(C(=O)OCOC(=O)c2ccc3ccccc3c2)CC[C@H]2[C@H](C(=O)OCOC(=O)c3ccc4ccccc4c3)[C@H]21
8 | 224 to 226 °C | CC(C)C(=O)OCOC(=O)[C@H]1[C@@H]2CC[C@@](N)(C(=O)OCOC(=O)C(C)C)[C@@H]21.Cl
9 | 258 °C (dec.) | CC(C)(C)C(=O)OCOC(=O)[C@H]1[C@@H]2CC[C@@](N)(C(=O)O)[C@@H]21.Cl
10 | 230 °C (dec.) | Cl.N[C@@]1(C(=O)O)CC[C@H]2[C@H](C(=O)OCOC(=O)c3ccccc3)[C@H]21
11 | 180 °C (dec.) | Cc1oc(=O)oc1COC(=O)[C@H]1[C@@H]2CC[C@@](N)(C(=O)O)[C@@H]21 [Example 26, (1S,2S,5R,6S)-2-amino-bicyclo[3.1.0]hexane-2,6-dicarboxylic acid 6-(5′-methyl-2′-oxo-[1′,3′]dioxolen-4′-yl)methyl ester]
12 | 184 to 185 °C | Cl.N[C@@]1(C(=O)OCOC(=O)c2ccc3ccccc3c2)CC[C@H]2[C@H](C(=O)O)[C@H]21
13 | 196 to 197 °C | CC(C)OC(=O)OCOC(=O)[C@H]1[C@@H]2CC[C@@](N)(C(=O)O)[C@@H]21 [Example 23, (1S,2S,5R,6S)-2-Amino-bicyclo[3.1.0]hexane-2,6-dicarboxylic acid 6-isopropyloxycarbonyloxymethyl ester]
14 | 92 to 94 °C | Cl.N[C@@]1(C(=O)OCOC(=O)c2cccc3ccccc23)CC[C@H]2[C@H](C(=O)OCOC(=O)c3cccc4ccccc34)[C@H]21
15 | 212 to 213 °C | Cl.N[C@@]1(C(=O)OCOC(=O)c2cccc3ccccc23)CC[C@H]2[C@H](C(=O)O)[C@H]21 [Example 17, (1S,2S,5R,6S)-2-amino-bicyclo[3.1.0]hexane-2,6-dicarboxylic acid 2-(naphthalene-1′-carbonyloxymethyl) ester hydrochloride]
